Here are results for eight molecules from ChEMBL document CHEMBL1140636, “Targeting cytochrome P450 enzymes: a new approach in anti-cancer drug development” (Bioorg Med Chem, 2007).

The target in one test is T1, Cytochrome P450 1B1 (Homo sapiens, UniProt Q16678).
T1 sequence (Q16678 whole entry): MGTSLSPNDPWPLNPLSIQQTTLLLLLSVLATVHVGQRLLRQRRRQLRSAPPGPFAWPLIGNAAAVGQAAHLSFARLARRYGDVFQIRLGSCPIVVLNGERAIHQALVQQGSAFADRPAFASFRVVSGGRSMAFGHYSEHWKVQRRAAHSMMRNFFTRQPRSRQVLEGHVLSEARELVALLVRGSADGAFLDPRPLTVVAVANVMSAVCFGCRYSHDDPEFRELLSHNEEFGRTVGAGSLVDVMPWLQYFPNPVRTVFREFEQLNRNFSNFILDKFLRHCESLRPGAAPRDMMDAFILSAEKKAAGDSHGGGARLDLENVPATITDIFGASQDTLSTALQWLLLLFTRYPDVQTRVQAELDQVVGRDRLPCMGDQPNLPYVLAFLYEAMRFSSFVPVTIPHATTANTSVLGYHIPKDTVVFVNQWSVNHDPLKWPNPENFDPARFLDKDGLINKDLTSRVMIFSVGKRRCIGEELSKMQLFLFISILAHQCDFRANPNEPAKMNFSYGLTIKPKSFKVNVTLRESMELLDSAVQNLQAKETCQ
Put plainly: Inhibition of CYP1B1. The test is classed as ADME.

Another test deals with T2, Cytochrome P450 1A1 (Homo sapiens, UniProt P04798).
T2 sequence (P04798 whole entry): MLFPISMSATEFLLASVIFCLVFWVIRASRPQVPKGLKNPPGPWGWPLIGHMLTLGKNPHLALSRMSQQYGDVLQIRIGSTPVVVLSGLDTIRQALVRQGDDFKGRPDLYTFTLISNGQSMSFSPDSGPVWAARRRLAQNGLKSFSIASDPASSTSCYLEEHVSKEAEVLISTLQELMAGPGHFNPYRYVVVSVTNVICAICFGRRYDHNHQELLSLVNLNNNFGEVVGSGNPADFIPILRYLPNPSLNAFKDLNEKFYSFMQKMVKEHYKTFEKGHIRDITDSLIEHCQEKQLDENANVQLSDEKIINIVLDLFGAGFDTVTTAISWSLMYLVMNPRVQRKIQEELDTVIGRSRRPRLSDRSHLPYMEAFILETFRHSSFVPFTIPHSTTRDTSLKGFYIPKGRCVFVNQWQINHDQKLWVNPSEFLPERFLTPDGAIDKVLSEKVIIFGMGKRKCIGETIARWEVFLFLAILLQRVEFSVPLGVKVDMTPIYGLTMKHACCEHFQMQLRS
Put plainly: Inhibition of CYP1A1. The class given is ADME.

In a further test the target is T3, Cytochrome P450 1A2 (Homo sapiens, UniProt P05177).
T3 sequence (P05177 whole entry): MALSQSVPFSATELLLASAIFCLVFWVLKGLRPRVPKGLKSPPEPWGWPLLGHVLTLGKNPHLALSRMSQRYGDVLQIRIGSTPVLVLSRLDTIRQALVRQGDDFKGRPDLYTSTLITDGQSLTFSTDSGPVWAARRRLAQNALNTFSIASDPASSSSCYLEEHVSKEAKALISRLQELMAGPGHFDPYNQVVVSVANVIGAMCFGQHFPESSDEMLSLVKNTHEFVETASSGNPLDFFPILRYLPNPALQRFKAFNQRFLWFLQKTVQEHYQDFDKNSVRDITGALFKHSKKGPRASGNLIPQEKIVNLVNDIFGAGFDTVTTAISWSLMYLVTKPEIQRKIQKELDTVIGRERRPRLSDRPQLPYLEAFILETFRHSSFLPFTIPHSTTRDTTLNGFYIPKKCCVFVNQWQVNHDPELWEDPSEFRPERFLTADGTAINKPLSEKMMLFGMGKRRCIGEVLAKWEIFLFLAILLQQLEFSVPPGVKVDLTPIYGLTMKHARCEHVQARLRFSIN
Put plainly: Inhibition of CYP1A2. The test is classed as ADME.

The target in test [1] is T4, 1,25-dihydroxyvitamin D(3) 24-hydroxylase, mitochondrial (Homo sapiens, UniProt Q07973).
T4 sequence (Q07973 whole entry): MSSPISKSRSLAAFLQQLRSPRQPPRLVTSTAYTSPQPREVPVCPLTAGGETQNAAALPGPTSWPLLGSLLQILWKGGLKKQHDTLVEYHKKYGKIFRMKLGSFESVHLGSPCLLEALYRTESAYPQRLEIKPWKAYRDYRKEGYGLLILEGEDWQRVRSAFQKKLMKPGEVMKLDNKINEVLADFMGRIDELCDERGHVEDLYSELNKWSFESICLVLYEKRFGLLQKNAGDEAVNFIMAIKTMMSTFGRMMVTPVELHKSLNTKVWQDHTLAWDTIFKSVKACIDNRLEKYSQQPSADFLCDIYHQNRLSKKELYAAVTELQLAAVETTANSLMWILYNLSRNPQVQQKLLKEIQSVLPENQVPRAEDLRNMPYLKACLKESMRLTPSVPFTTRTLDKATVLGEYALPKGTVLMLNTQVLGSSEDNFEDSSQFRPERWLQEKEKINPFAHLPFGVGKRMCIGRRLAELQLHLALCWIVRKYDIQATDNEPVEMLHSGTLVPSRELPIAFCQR
Put plainly: Inhibition of CYP24 in human keratinocytes. The class given is cell-based.

The target of test [2] is T5, 25-hydroxyvitamin D-1 alpha hydroxylase, mitochondrial (Homo sapiens, UniProt O15528).
T5 sequence (O15528 whole entry): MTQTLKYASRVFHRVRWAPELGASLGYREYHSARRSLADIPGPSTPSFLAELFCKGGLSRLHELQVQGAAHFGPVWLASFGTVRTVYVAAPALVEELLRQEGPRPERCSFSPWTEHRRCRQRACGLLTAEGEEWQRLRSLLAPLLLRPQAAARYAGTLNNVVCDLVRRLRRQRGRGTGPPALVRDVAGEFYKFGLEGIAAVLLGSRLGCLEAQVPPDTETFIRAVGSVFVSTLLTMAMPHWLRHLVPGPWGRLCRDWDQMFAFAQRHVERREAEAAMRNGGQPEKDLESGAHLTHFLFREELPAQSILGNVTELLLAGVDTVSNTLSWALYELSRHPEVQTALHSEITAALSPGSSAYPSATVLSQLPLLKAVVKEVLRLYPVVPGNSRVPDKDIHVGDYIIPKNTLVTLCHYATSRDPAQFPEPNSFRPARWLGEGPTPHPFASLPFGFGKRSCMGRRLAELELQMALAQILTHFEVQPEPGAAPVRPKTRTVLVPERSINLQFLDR
Put plainly: Inhibition of CYP27B1 in human keratinocytes. The test is classed as cell-based.

Test [3] concerns the target T6, Aryl hydrocarbon receptor (Homo sapiens, UniProt P35869).
T6 sequence (P35869 whole entry): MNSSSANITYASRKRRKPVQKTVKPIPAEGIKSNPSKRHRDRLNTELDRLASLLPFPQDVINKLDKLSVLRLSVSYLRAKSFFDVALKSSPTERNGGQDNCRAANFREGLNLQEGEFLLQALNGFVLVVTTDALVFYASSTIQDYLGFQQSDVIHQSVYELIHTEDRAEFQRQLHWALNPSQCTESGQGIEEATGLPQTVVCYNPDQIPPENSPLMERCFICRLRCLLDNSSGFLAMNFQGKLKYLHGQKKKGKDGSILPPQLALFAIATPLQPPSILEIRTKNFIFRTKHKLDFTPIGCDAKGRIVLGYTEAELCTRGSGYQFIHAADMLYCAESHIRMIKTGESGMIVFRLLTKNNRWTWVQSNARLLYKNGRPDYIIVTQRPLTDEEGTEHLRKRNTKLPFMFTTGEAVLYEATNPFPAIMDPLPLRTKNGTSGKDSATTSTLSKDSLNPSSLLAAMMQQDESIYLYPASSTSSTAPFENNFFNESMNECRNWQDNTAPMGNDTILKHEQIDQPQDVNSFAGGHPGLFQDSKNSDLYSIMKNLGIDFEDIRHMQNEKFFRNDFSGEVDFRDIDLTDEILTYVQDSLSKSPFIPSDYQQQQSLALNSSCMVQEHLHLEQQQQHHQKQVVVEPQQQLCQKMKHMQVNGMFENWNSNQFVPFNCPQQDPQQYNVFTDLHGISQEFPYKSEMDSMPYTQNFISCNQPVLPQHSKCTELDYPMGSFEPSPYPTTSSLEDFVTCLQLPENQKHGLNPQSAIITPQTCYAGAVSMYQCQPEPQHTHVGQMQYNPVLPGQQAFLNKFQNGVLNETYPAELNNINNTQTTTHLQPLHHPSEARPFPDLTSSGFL
Put plainly: Inhibition of aryl hydrocarbon receptor.

Test [4] in a line: Inhibition of cigarette smoke condensate-induced growth of immortalized human BEAS-2B cells by soft agar colony assay. The class given is functional.
Another test addresses T7, Cytochrome P450 26A1 (Homo sapiens, UniProt O43174).
T7 sequence (O43174 whole entry): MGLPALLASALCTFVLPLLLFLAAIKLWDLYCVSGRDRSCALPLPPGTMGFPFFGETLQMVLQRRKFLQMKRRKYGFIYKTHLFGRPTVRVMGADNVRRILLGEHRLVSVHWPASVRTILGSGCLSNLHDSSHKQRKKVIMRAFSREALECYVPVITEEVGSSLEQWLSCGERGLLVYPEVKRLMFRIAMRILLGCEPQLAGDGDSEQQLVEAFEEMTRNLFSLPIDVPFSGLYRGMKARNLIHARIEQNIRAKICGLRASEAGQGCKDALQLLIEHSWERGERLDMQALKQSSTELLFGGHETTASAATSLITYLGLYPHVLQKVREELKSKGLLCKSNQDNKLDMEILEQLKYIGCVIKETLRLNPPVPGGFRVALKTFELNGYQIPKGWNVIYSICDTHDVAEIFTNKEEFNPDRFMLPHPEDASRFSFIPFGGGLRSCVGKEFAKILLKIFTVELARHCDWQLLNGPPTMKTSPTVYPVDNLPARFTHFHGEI
Put plainly: Inhibition of CYP26.

The target of test [5] is T4, 1,25-dihydroxyvitamin D(3) 24-hydroxylase, mitochondrial. Put plainly: Inhibition of CYP24.
Test [6] deals with T5, 25-hydroxyvitamin D-1 alpha hydroxylase, mitochondrial. Put plainly: Inhibition of CYP27B1.
Test [7] concerns the target T8, Sterol 26-hydroxylase, mitochondrial (Homo sapiens, UniProt Q02318).
T8 sequence (Q02318 whole entry): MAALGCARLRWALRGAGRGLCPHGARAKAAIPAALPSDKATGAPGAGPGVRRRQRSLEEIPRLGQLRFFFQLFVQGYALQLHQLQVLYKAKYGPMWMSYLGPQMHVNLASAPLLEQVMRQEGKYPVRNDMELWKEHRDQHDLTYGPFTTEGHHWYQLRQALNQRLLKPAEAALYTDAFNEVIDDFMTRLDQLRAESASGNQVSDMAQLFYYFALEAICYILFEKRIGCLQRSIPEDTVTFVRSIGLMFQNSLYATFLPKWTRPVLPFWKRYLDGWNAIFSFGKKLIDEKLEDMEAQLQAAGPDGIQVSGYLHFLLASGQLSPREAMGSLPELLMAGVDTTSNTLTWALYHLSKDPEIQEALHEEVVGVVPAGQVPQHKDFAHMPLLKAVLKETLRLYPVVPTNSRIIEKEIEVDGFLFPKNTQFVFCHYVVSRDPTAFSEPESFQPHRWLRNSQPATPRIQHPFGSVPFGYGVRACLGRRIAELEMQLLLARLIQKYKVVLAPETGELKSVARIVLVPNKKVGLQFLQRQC
Put plainly: Inhibition of CYP27A1.

`CC#Cc1ccc2c(ccc3ccccc32)c1`: the IC50 (commonly the concentration needed to halve the response being measured) on Cytochrome P450 1B1 was found to be 30 nM; on Cytochrome P450 1A1 it was 150 nM; at Cytochrome P450 1A2, 60 nM.
`c1cc2ccc3cccc4ccc(c1)c2c34` [PYRENE]: the half-inhibitory concentration (IC50) against Cytochrome P450 1B1 is 2 nM; at Cytochrome P450 1A1, 41 nM; against Cytochrome P450 1A2, 7 nM.
In the case of `O=C(NCC(c1ccccc1)n1ccnc1)c1ccc(-c2ccc(Cl)cc2)cc1` (stereo not drawn), the half-maximal inhibitory concentration (IC50) in test [1] amounted to 15 nM; in [2], 616 nM.
Molecule `O=c1c(O)c(-c2ccc(O)cc2)oc2cc(O)cc(O)c12` [KAEMPFEROL] yielded an IC50 in test [3] of 28 nM. The IC90 (as a rule, the concentration at which the effect reaches the 90% level) in test [4] came to 10000 nM.
Turning to `Clc1cccc(C(c2ccc3nc[nH]c3c2)N2C=NCC2)c1` (stereo not drawn), on Cytochrome P450 26A1, the IC50 was 2200 nM.
As for `COc1cc(/C=C\c2cccs2)cc(OC)c1`, the results for the half-inhibitory concentration (IC50) against Cytochrome P450 1B1, against Cytochrome P450 1A1 and against Cytochrome P450 1A2 were 2 nM, 61 nM and 11 nM, respectively.
As for `C=C1/C(=C\C=C2/CCC[C@]3(C)C([C@H](C)CC[S+](=N)([O-])c4ccccc4)=CCC23)C[C@@H](O)C[C@@H]1O` (stereo partly drawn), the results for the IC50 in test [5], in test [6] and in test [7] were 7.4 nM, 554 nM and greater than 1000 nM, respectively.
At Cytochrome P450 1B1, `Clc1ccc(-c2cc(Cl)c(Cl)c(Cl)c2)cc1Cl` [POLYCHLORINATED BIPHENYL 126] returned an IC50 of 11 nM.
